Ki data for six compounds are collected here from BindingDB's records for doi:10.1016/s0960-894x(98)00132-2 (Green Cross Research Laboratories, 1999).

SMILES strings stand for the structures. pKi: −log10 of the molar value.

The target of this assay is Chymotrypsinogen A (Bos taurus) (UniProt P00766). Description: Compound was evaluated for inhibitory activity against Bovine Chymotrypsinogen.
For `CC(C)(C)OC(=O)NC(CCC(=O)O)C(=O)N1CCC[C@H]1C(=O)NC(Cc1ccccc1)C(=O)C(F)(F)C(=O)Nc1cc(C(=O)O)cs1` (stereo partly drawn) [5-(4-{[(S)-1-(2-tert-Butoxycarbonylamino-4-carboxy-butyryl)-pyrrolidine-2-carbonyl]-amino}-2,2-difluoro-3-oxo-5-phenyl-pentanoylamino)-thiophene-3-carboxylic acid], the negative-log Ki (pKi) (as a rule, −log10 of the Ki, conventionally taken in molar units) is less than 4.00.

For `CC(C)(C)OC(=O)NC(CCC(=O)O)C(=O)N1CCC[C@H]1C(=O)NC(Cc1ccccc1)C(=O)C(F)(F)C(=O)Nc1cccc(C(N)=O)c1` (stereo partly drawn) [5-{(S)-2-[1-Benzyl-3-(3-carbamoyl-phenylcarbamoyl)-3,3-difluoro-2-oxo-propylcarbamoyl]-pyrrolidin-1-yl}-4-tert-butoxycarbonylamino-5-oxo-pentanoic acid], the pKi was 5.91.

`CC(C)(C)OC(=O)NC(CCC(=O)O)C(=O)N1CCC[C@H]1C(=O)NC(Cc1ccccc1)C(=O)C(F)(F)C(=O)Nc1cccc(CC(=O)O)c1` (stereo partly drawn) [5-{(S)-2-[1-Benzyl-3-(3-carboxymethyl-phenylcarbamoyl)-3,3-difluoro-2-oxo-propylcarbamoyl]-pyrrolidin-1-yl}-4-tert-butoxycarbonylamino-5-oxo-pentanoic acid] gave a pKi of 5.40.

`CC(C)(C)OC(=O)NC(CCC(=O)O)C(=O)N1CCC[C@H]1C(=O)NC(Cc1ccccc1)C(=O)C(F)(F)C(=O)Nc1cccc(C(=O)O)c1` (stereo partly drawn) [3-(4-{[(S)-1-(2-tert-Butoxycarbonylamino-4-carboxy-butyryl)-pyrrolidine-2-carbonyl]-amino}-2,2-difluoro-3-oxo-5-phenyl-pentanoylamino)-benzoic acid] showed a negative logarithm of the Ki (pKi) of 5.89.

On to `CC(C)(C)OC(=O)NC(CC(=O)O)C(=O)N1CCC[C@H]1C(=O)NC(Cc1ccccc1)C(=O)C(F)(F)C(=O)Nc1cccc(C(=O)O)c1` (stereo partly drawn) [3-(4-{[(S)-1-(2-tert-Butoxycarbonylamino-3-carboxy-propionyl)-pyrrolidine-2-carbonyl]-amino}-2,2-difluoro-3-oxo-5-phenyl-pentanoylamino)-benzoic acid], for which the negative logarithm of the Ki (pKi) is less than 4.00.

In the case of `CC(C)(C)OC(=O)NC(CCC(=O)O)C(=O)N1CCC[C@H]1C(=O)NC(Cc1ccccc1)C(=O)C(F)(F)C(=O)Nc1cccc(S(N)(=O)=O)c1` (stereo partly drawn) [5-{(S)-2-[1-Benzyl-3,3-difluoro-2-oxo-3-(3-sulfamoyl-phenylcarbamoyl)-propylcarbamoyl]-pyrrolidin-1-yl}-4-tert-butoxycarbonylamino-5-oxo-pentanoic acid], the pKi was 5.99.
